Measurements taken from US20230286995A1, “METABOLICALLY STABLE PYRIMIDINYL DIHYDROQUINOXALINONES AS TUBULIN POLYMERIZATION INHIBITORS” (UNIVERSITY OF TENNESSEE RESEARCH FOUNDATION, priority 2022, published 2023).
Entries after “also recorded” stand apart in the source; their conditions may differ. Like-named read-outs stand apart in the source and are kept apart here.

Assays:
[1] = tested on: Mia PaCa-2-Luc xenografts; type: in vivo, NSG mice; conditions: 2 mg/kg i.v., 1 dose/week, 42 days
Description: All animal procedures were performed in accordance with the protocols approved by the Institutional Animal Care and Use Committee (IACUC) at UTHSC. Two pancreatic cancer cell lines, Mia PaCa-2-Luc and PANC-1-Luc, were used in this study. 50 μL of Mia PaCa-2-Luc (5×10^6 cells in HBSS) or PANC-1-Luc (3×10^6 cells in HBSS) cell suspension was mixed with same volume of Matrigel (1:1 mixture) right before use. Cell mixture was subcutaneously injected to the right flank of each NSG mice (male, 6-8 weeks). […] The control group received no treatment. Treatment started when the average tumor size reached 70-100 mm^3. […] Tumor volume and body weight were measured twice per week. Tumor volume was calculated by the equation: volume (mm^3)=0.5×(length×width^2). All animals were euthanized at the end of the study. Tumors were excised, recorded for ex-vivo weight and size, and imaged.

[2] = tested on: MDA-MB-231 BrM2 brain metastases; test: MDA-MB-231-BrM2 brain metastasis model, survival study (Experiment 2); type: in vivo, NSG mice
Mia PaCa-2 = test: Colony formation assay (PDAC); type: cell-based, human; conditions: tested 1, 2.5, 5 nM
Description: Cells were seeded at 1000 cells per well in 6-well plates in triplicates and treated with vehicle control or 1-5 nmol/L test compounds for 11 to 14 days. The colonies were fixed with 100% methanol and stained with 0.5% crystal violet. Colony area was quantified with Image J software.

[3] = tested on: PANC-1 and Mia PaCa-2 cell lines; test: Cell cycle analysis (PDAC); type: cell-based, human
Description: The cells were plated in 100-mm dishes at a concentration of 1-2×10^6 cells/dish in DMEM without serum. After serum starvation for 24 h, medium was replaced with complete culture medium containing tested compounds. For cell cycle analysis, the cells were trypsinized and fixed with 70% ethanol in −20° C. overnight. The fixed cells were incubated with 100 μg/mL of RNase A and 50 μg/mL propidium iodide for 30 min at room temperature. Stained cells were analyzed using Bio-Rad ZE5 and ModFit LT 5.0.9 software at Flow cytometry and cell sorting core at the University of Tennessee Health Science Center (UTHSC) and the proportion of G1, S, G2/M phases were determined.

[4] = Toxicity of 5m at higher dose in mice; type: in vivo; conditions: 5 mg/kg
[5] = rats
A549/TxR = test: cells; conditions: Homo sapiens, read-out: IC50 ± SEM (nM) A549/TxR
in vitro = conditions: rat, liver microsomes
[6] = tested on: A2780/TxR ovarian cancer xenografts; test: Orthotopic A2780/TxR ovarian cancer xenograft model; conditions: 5m 1 mg/kg IV; Compound 17ya 20 mg/kg PO; 3 weeks
DU-145/TxR = test: Cytotoxicity assay (MTS, 72 h); type: cell-based; conditions: Homo sapiens, DU-145, read-out: IC50 ± SEM (nM) DU-145/TxR; Table 2
PC3/TxR = test: Cytotoxicity assay (MTS, 72 h); type: cell-based; conditions: Homo sapiens, Table 6, paclitaxel-resistant, read-out: IC50 (nM) Prostate cancer PC3/TxR
porcine brain tubulin = target: T1, porcine brain tubulin (Sus scrofa, UniProt P02550+P02554); test: Tubulin polymerization inhibitory assay (FIG. 29A); type: biochemical; conditions: 10 μM, 37° C.; DMSO control 0.3
T1 construct: tubulin mixture containing porcine brain tubulin (3 mg/mL); purchased Cytoskeleton, Inc. T-238P; host or cells: porcine brain
T1 sequence (P02550 whole entry): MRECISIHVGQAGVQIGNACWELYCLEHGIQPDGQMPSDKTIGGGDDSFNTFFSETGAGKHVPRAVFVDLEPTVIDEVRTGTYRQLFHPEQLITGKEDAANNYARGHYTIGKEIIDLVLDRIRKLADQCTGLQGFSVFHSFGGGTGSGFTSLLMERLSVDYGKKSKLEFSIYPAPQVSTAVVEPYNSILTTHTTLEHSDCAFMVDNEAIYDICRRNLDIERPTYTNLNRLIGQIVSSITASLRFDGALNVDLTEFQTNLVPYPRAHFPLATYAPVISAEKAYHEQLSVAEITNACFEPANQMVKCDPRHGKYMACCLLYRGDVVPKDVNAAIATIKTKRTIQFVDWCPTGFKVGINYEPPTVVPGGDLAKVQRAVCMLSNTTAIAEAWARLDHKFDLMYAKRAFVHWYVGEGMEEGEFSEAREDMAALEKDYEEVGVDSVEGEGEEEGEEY
T1 sequence (P02554 whole entry): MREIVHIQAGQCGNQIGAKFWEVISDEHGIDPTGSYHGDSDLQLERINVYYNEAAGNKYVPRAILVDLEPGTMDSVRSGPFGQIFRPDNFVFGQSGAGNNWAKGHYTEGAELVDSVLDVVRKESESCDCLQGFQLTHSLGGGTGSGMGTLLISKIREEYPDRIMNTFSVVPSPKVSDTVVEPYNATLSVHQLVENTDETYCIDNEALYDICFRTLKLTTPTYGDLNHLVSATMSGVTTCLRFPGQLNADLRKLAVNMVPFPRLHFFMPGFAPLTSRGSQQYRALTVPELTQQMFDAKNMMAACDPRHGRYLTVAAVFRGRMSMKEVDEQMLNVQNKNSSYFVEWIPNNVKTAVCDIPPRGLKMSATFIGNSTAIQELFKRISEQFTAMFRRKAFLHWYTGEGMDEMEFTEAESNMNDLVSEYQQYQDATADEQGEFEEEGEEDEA
Description: Tubulin polymerization inhibitory assay: In vitro tubulin polymerization assay was carried out according to the manufacturers' instructions (Cytoskeleton). Briefly, 10 μM of 5v was added into tubulin protein (3 mg/mL, purity>99%), and the mixture was transferred into a microplate reader and incubated at 37° C. […] Colchicine and paclitaxel were used as positive controls. […] The assay was carried out in duplicate.

A375/TxR cells = test: Cell cycle analysis (PI, flow cytometry); type: cell-based, human; conditions: 5v 1, 2, 5 nM, 24 h
[7] = Tolerability assessment of 5v in healthy mice; type: in vivo
[8] = tested on: A375/TxR, M14/LCC6MDR1, MDA-MB-231/TxR, PC3/TxR, and DU145/TxR; test: Cell proliferation inhibition assay (MTS), paclitaxel-resistant panel; type: cell-based, human
Description: Cell proliferation inhibition assay: The cell proliferation inhibitory effects of tested compounds were first determined through MTS assay as previously described. In short, 3000 to 7500 cells were added to a 96-well cell culture plate followed by the treatment of the test compounds (0.1 nM to 3 μM) in quadruplicate after seeding and overnight incubation. After 72 hours of treatment, MTS (Promega) was added to the wells and the absorbance was measured at […] after incubating for 1.5 to 2 h. […] Briefly, A375/TxR cells (1000 cells/well) were treated with growth medium containing 0.5 nM, 1 nM, or 2 nM of 5v and incubated for over 7 days (the incubation medium was changed every 3 days). After fixing and staining with 0.5% crystal violet, the cell colonies were quantified by the Hybrid Counting module of the Keyence BZ-X700 microscope. The assay was performed in triplicate.

In the case of COc1ccc2c(c1)NC(=O)CN2c1nc(C)nc2c1CCC2 [Compound 5m, 7-methoxy-4-(2-methyl-6,7-dihydro-5H-cyclopenta[d]pyrimidin-4-yl)-3,4-dihydroquinoxalin-2(1H)-one], the “reduction of tumor growth vs control” value [1] is reported as 70-80%, the median survival ([2]; 1.0 mg/kg IV twice per week, vehicle 25 days) is reported as 36.5 days and the “body weight” value ([2]; Experiment 2) is reported as “gained weight through day 21 of dosing”. The “survival of all treated mice” value ([2]; all vehicle mice deceased by 30 days) was greater than 30 days, the “increased metastasis (photon flux) in vehicle vs 5m treated representative mouse” value ([2]; day 28, n=1) was 6.7 fold and the “metastatic progression in the brain, in vivo photon flux” value ([2]; mouse, in vivo) was “delayed metastatic progression in the brain”. For the same compound, the “day until which representative treated mouse lived” value ([2]; vehicle mouse died on day 28) was 35 days, the “dose at which colony formation was completely inhibited” value (Mia PaCa-2) was 1 nM and the “cell cycle arrest at G2/M phase” value [3] was “dose dependently increase the proportion of cells in G2/M phase”. For the same compound, the “toxicity at higher dose” value [4] was “had toxicity”, the “Clearance” value ([5]; Intravenous (2 mg/kg)) was 36.9 mL/min/kg and the “Cmax” value ([5]; Intravenous (2 mg/kg)) was 806 ng/mL. The “Volume of distribution” value ([5]; Intravenous (2 mg/kg)) was 23.7 L/kg, the “t1/2” value ([5]; Intravenous (2 mg/kg), terminal half-life) was 14.7 h and the “Cumulative urinary excretion (%)” value ([5]; Intravenous (2 mg/kg), unchanged form) was 0.00134%. For the same compound, the “Bioavailability (%)” value ([5]; Oral (5 mg/kg)) was 3.2%, the “Cmax” value ([5]; Oral (5 mg/kg)) was 34.7 ng/mL and the IC50 (A549/TxR) was 2.8 ± 1.1 nM. For the same compound, the CLint scaled at 1 μg/mL (in vitro) was 86.9 mL/min/kg and the “mice having visible tumor” value [6] was 1 of 5.
In the case of CCNc1nc2c(c(N3CC(=O)Nc4cc(OC)ccc43)n1)CCC2 [Compound 5v, 4-(2-(ethylamino)-6,7-dihydro-5H-cyclopenta[d]pyrimidin-4-yl)-7-methoxy-3,4-dihydroquinoxalin-2(1H)-one], the IC50 (DU-145/TxR) is reported as 1.9 ± 0.3 nM, the IC50 (PC3/TxR) is reported as 0.8 ± 0.1 nM and the “A340 at which tubulin assembly stabilized” value (porcine brain tubulin) is reported as “approximately 0.05”. For the same compound, the “G2/M phase arrest” value (A375/TxR cells) was “arrested in the G2/M phase to increase dramatically”, the “tolerability” value ([7]; 5 mg/kg IP, five times a week) was “still healthy; also recorded: tolerated at 5 mg/kg IP” and the “tolerability” value ([7]; 5 mg/kg and 10 mg/kg IV, 2 times a week) was “safe and no acute toxicity”. The “tolerability” value ([7]; 10 mg/kg IP, five times a week) was “toxic to mice; also recorded: not 10 mg/kg IP” and the “IC50 level in paclitaxel-resistant cancer cells” value [8] was “sub-nanomolar level”.
